One series has as its system Plasmodium falciparum. The experiment in a line: blood stage hypoxanthine incorporation (HXI) cell assay. As to conditions: read-out: Pf HXI pEC50 (converted). Format: cell-based. The text has this: [21] Full details on biochemical assay and anti-malarial hypoxanthine incorporation (cell based) assay procedures can be found in reference 16.
Another series is described as follows: Kinetic solubility. Format: physicochemical. The procedure:
The kinetic solubility was measured by diluting a small amount of 10 mM DMSO stock into PBS pH7.4 in a filtration plate at a target concentration of 200 μM giving a final solution composition of 98:2 PBS:DMSO. Each compound was run in triplicate on the same plate with two standard compounds, verapamil and ketoconazole, included per plate. The filtration plate was shaken at 500 rpm for 90 minutes and then filtered under vacuum. The filtrate was sampled and diluted with a DMSO:PBS mixture in a flat bottomed UV plate to give a solution with a composition of PBS:DMSO 80:20. A dilution series for each compound was then created in flat bottomed UV plates in PBS:DMSO 80:20 with concentrations 200 μM, 100 μM, 50 μM, 25 μM, 12.5 μM & […]. The UV absorbance for these solutions was read across 230-400 nm at 1 nm intervals using a TECAN Safire II plate reader and a suitable UV wavelength chosen around the UV maximum of each compound.

The subject of series [1] is HepG2 human liver-derived cells. The experiment in a line: in vitro cytotoxicity assay in HepG2 cells. Format: cell-based. The following applies: for EC50: Homo sapiens, read-out: HepG2 pEC50 (converted).
For another series, the target named is T1, PKG1α(h) (Homo sapiens, UniProt Q13976).
T1 construct: purchased Millipore (Kinase Profiler service, tested externally)
T1 sequence (Q13976 1-671): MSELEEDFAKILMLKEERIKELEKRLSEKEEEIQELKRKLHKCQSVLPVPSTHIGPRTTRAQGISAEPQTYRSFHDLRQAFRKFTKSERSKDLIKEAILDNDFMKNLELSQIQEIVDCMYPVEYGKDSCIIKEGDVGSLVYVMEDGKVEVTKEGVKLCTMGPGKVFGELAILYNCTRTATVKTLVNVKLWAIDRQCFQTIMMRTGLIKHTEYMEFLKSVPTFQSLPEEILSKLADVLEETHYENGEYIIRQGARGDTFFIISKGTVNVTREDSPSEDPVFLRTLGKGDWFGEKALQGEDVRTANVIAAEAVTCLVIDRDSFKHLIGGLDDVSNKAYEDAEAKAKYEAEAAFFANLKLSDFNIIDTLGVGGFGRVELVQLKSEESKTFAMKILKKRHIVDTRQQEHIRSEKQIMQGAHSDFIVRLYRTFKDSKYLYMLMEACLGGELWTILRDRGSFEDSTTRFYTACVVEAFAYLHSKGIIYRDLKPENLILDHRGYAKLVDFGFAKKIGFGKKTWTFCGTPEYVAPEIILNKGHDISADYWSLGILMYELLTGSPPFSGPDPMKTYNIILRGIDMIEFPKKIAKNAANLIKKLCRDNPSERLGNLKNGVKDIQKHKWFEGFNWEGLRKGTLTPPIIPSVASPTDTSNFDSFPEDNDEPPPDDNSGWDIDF
Kind of series: Millipore Kinase Profiler assay, PKG1α(h). It is filed as biochemical. As to conditions: for pIC50: PKG1α(h); for activity against human orthologue of PKG: up to a top assay concentration of 1 µM.

The target of a further series is T2, PKG1β(h) (Homo sapiens, UniProt Q13976).
T2 construct: purchased Millipore (Kinase Profiler service, tested externally)
T2 sequence (Q13976 1-686 isoform Q13976-2): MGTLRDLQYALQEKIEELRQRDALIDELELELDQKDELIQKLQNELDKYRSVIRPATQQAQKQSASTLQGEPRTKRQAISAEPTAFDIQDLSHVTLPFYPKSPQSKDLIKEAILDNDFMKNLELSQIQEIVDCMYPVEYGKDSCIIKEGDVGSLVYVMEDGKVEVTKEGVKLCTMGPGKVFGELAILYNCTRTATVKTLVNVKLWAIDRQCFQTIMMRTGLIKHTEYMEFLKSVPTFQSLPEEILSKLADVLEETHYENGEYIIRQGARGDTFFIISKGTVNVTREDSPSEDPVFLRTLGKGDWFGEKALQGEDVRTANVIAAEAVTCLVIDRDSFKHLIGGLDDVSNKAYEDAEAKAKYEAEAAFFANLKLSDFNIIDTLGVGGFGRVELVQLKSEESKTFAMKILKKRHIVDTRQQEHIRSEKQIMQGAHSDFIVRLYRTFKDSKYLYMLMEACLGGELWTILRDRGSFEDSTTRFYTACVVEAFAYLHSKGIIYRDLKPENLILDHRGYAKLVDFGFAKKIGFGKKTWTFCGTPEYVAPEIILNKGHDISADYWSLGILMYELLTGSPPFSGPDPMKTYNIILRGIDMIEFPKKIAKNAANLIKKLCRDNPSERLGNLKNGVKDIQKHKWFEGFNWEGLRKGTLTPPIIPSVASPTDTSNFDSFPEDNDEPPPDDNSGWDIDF
The experiment in a line: Millipore Kinase Profiler assay, PKG1β(h). It is filed as biochemical. The following applies: for pIC50: PKG1β(h); for activity against human orthologue of PKG: up to a top assay concentration of 1 µM.

The next series has as its target PfPKG (Plasmodium falciparum, UniProt Q8I719). The experiment in a line: biochemical. The following applies: for LLE (pIC50 – mLogD): PfPKG pIC50 minus measured logD; for IC50: biochemical assay, read-out: PfPKG pIC50 (converted).
A short description of series [2]: Measured logD (shake flask). It is filed as physicochemical. As to conditions: octanol/PBS.
The nature of series [3]: mouse liver microsomal turnover. Format: in vitro ADME. As to conditions: % remaining after 30 min incubation with mouse liver microsomes. The method, then:
Microsomal turnover data was obtained using mouse liver microsomes (MLM) obtained from BD Biosciences. The compounds are pre-incubated at 37 °C for 5 minutes with the microsomes and the reaction was initiated by adding an equal volume of NADPH generating solution, also obtained from BD Biosciences. The final compound concentration in the incubation is 1 μM, and the microsomal protein concentration is 0.2 mg/mL. A sample is taken at t=0 and quenched with 2x volume of ice-cold methanol containing an internal standard reference compound (carbamazepine). The reaction is agitated at 37 °C for 30 minutes, when a further sample was taken and quenched in an identical fashion. The samples were centrifuged at 10000 rpm for 10 minutes and the supernatant taken for analysis in triplicate by LC-MS/MS (Agilent Technologies G6410 series, triple quadrupole with MM-ESI ion source) using optimised multiple reaction monitoring (MRM) scans and a standard column gradient on an Acquity UPLC BEH C8 1.7μm column, running acetonitrile and water with 0.05% acetic acid as the mobile phase. The % turnover is obtained by calculating the percentage difference of the peak areas, normalised to the internal standard, at t=0 and t=30. Verapamil is used as the standard compound for this assay.
For orientation: Liver microsomes are vesicles of endoplasmic reticulum, rich in cytochrome P450 enzymes.

The test system of a further series is human kinase panel. Kind of series: Kinase selectivity profiling against a human kinase panel. The following applies: single 1 µM concentration. Format: biochemical. The procedure: [29] Kinase selectivity profiling was carried out at the MRC Protein Phosphorylation Unit at the University of Dundee, U.K. at a single concentration of 1 µM for all three compounds.

Setting [4] is: blood stage hypoxanthine incorporation cell assay.
The mark [5] stands for this setting: HepG2, concentration at which half of cells remained viable at 48 h.

By pIC50 is commonly meant the IC50 on a negative log10 scale, so that one unit is a factor of ten.

Read-outs that look alike come from different tables or passages of the source.

PfPKG, sequence (Q8I719 whole entry): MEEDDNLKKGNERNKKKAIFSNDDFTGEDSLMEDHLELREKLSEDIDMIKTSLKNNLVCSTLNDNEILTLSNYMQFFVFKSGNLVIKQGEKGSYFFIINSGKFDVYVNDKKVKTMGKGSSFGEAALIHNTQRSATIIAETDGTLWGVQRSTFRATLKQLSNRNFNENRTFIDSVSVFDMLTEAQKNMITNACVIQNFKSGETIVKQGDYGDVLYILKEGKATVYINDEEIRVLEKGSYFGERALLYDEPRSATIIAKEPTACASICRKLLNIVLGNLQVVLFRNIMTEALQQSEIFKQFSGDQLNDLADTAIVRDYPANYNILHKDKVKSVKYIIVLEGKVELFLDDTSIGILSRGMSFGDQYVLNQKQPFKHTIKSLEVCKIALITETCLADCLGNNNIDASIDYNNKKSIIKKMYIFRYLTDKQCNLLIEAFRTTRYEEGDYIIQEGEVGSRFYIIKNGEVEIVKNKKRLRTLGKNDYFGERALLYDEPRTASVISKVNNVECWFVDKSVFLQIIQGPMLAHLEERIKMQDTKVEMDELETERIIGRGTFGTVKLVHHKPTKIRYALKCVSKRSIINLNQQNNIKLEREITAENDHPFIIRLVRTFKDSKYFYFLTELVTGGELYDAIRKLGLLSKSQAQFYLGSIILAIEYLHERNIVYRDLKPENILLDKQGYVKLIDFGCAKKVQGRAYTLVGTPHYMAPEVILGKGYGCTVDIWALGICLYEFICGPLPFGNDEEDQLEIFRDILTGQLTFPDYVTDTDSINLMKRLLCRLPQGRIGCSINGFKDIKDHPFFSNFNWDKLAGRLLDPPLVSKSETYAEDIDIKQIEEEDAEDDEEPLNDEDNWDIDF

As to `CN(C)Cc1ccn2c(-c3ccnc(N)n3)c(-c3ccc(F)cc3)nc2c1` [Compound 2], the EC50 with Plasmodium falciparum is 363 nM; in [1] (HepG2, 48 h), greater than 20000 nM. The same compound came in with a Kin sol in the series “Kinetic solubility” (kinetic solubility, PBS pH7.4) of 200 µM. Moreover, the pIC50 at PKG1α(h) and against PKG1β(h) was less than 6 throughout. In addition, the “activity against human orthologue of PKG” value at PKG1α(h) and at PKG1β(h) was “no activity” in each case.

As to `CNc1nccc(-c2c(-c3ccc(F)cc3)nc3cc(NCCN(C)C)ccn23)n1` [Compound 27], the “LLE (pIC50 – mLogD)” value on PfPKG is reported as 6.4. For the same compound, on PfPKG, the IC50 was 2.75 nM. Besides, the values for the EC50 (in the series with Plasmodium falciparum (setting [4]); in series [1] (setting [5])) were 525 nM and greater than 20000 nM, respectively. This compound gave a mLogD in [2] of 2.2. The MLM % rem in [3] was 93%. In “Kinetic solubility” (90 min, pH 7.4), this compound displayed a Kin sol of 207 µM. The “in vitro cytotoxicity (in words)” value in series [1] was “non-cytotoxic”. For the same compound, the pIC50 at PKG1α(h) and against PKG1β(h) was less than 6 throughout. The “activity against human orthologue of PKG” value on PKG1α(h) and on PKG1β(h) was “no activity” in each case. In the series on human kinase panel, the “selectivity against human kinase panel (in words)” value is recorded as “excellent selectivity profile”.

In the case of `CN(C)Cc1ccn2c(-c3ccnc(Nc4ccc(N5CCNCC5)cc4)n3)c(C3CC3)nc2c1` [Compound 13], on PfPKG, the “LLE (pIC50 – mLogD)” value amounted to 6.8 and the IC50 was 4.47 nM. Besides, the EC50 in the series with Plasmodium falciparum (setting [4]) was 200 nM. This compound also yielded a mLogD in [2] of 1.5. Also, the MLM % rem in series [3] was 53%. This compound also yielded a Kin sol in the series “Kinetic solubility” (90 min, pH 7.4) of 189 µM. Also, in series [1], the “in vitro cytotoxicity (in words)” value is given as “non-cytotoxic”. The EC50 in [1] (setting [5]) was greater than 10000 nM. Also, the “selectivity against human kinase panel (in words)” value in the series with human kinase panel was “decreased level of selectivity”.

Values taken from publication PMC6857626, “Potent bicyclic inhibitors of malarial cGMP-dependent protein kinase: approaches to combining improvements in cell potency, selectivity and structural novelty” (Bioorganic & Medicinal Chemistry Letters, 2019).
